# Test results published in patent US7595300B2, “7-quinolyl ketolide antibacterial agents” (priority 2005, dated 2009).
# Where two headings read alike, the source gives them in different places.
# Key:
# [1] = Skin penetration of topical formulations, Franz static diffusion cells; assay type: in vitro ADME, human; conditions: first experiment, dibutyl sebacate
# Procedure: The penetration of compound (III) formulated in various vehicles into human skin was determined. Franz static diffusion cells (15 mm diameter orifice, o-ring joint) were mounted on 9-cell manifolds and maintained at a constant temperature by use of re-circulating water baths set at 32° C. These cells have an opening with a nominal area of 1.77 cm^2 and a receptor compartment with a volume ranging between 12 to 14 ml. Each diffusion cell was assembled by placing a disk shaped section of excised human skin (obtained from elective surgery) over the orifice of the receptor (bottom) compartment. A Teflon® O-ring was placed on top of the skin before the donor cap was added (top compartment). This diffusion area was then secured in place by a pinch clamp, ensuring an adequate seal between the donor and receptor compartments. The joint between the donor and receptor compartments of each cell was wrapped with Parafilm® (American Can Company) to prevent evaporation of the receptor phase. Each cell was then filled with the receptor phase consisting of phosphate buffered saline with 0.1% sodium azide and 4% bovine serum albumin (w/w/w) at 32° C. Any air bubbles present under the tissue were removed prior to dosing. […]
# Approximately 10 mg/cm^2 of each formulation was dosed onto the tissue surfaces of five cells. […] Samples were analyzed for drug content by LC/MS-MS. […]
# [2] = system: cryopreserved human hepatocytes; conditions: 4 h
# From the text: In a second experiment, the hepatotoxicity of compound (III) was estimated using cryopreserved human hepatocytes pooled from four donors, measuring leakage of cellular lactate dehydrogenase (LDH). Each donor was selected for the study based on the activity of cytochrome P450 (phase I) and uridine diphosphoglucuronosyl transferases (phase II). Hepatocytes were initially prepared from human livers by collagenase perfusion and subsequently cryogenically frozen. Viable cryopreserved hepatocytes were enriched in accordance with BD Biosciences Discovery Labware SOP HP-10. Hepatocytes were rapidly thawed, pooled and incubated in Williams' E medium at a density of 2×10^6 cells/ml at 37° C. in an incubator for 30 min. After incubation, the viable cells were separated with 24% Percoll gradient and resuspended in WME at a density of 1×10^6 cells/ml. Initial viability was determined by trypan blue exclusion. Hepatocytes were incubated in a 24-well plate and each well contained 0.25×10^6 cells in 0.5 ml of WME medium. Three wells were used for determination of total LDH activity (cells+media) and the background activity (incubation media only) at the 0 time point. Briefly, a 100 μl aliquot of cell suspensions from these wells was immediately taken and rapidly centrifuged at 14,000 rpm for 15 seconds. The supernatants were transferred to microcentrifuge tubes and stored at ≦4° C. for measurement of LDH activity present in medium at the 0 time point. Another 100 μl aliquot of cell suspension from same wells was removed, mixed with 100 μl of 0.4% Triton and stored at ≦4° C. for measurement of total LDH activity.
# Hepatocytes in other wells were incubated with test article at the concentrations of 200, 67, 22, 7.4, 2.5 and 0.82 μM. […] Hepatocytes were exposed to the test substance and the positive control for 4 hours. After incubation, 100 μl aliquots of cell suspensions were taken and rapidly centrifuged at 14,000 rpm for 15 seconds. The supernatants were transferred to microcentrifuge tubes and stored at ≦4° C. for measurement of LDH activity in incubation medium.
# LDH activity in both total (medium+cells) and medium was determined by monitoring the enzymatic formation of NADH from NAD^+ in the presence of L-lactic acid. Briefly, post-centrifugation supernatants were diluted 1:40 with phosphate-buffered saline (pH 7.4). A 100 μl aliquot was mixed with 100 μl LDH reagent containing 7.5 mM NAD^+, 50 mM L-lactic acid in 250 mM Tris-HCl buffer (pH 8.9) in a 96-well plate. The increase in fluorescence due to the formation of NADH were kinetically monitored at Ext. 360 nm, Em. 460 nm, using a Fluorescence plate reader. The percent LDH leakage from cells was calculated by comparing incubation medium values with total LDH activity (see Equation below). The cell viability at each concentration of test articles was reported. % LDH leakage=(LDH activity in medium sample/total LDH activity)*100 The data are summarized in Table 17.
# [3] = system: Streptococcus pneumoniae ATCC 6303; test: rat lower respiratory tract infection (lung pneumonia) model; assay type: in vivo; conditions: for Log CFU/g (avg, n = 8): rat lungs, 12 hours after the last dose
# Procedure: The in vivo efficacy of compounds (II) and (III) were evaluated in a rat lower respiratory tract infection model. Groups of 8 rats were infected intratracheally with 0.5 mL containing 10^6 CFUs of Streptococcus pneumoniae ATCC 6303 in 5% hog gastric mucin. Compounds dissolved in ethanol were administered by oral gavage daily over 3 days starting 18 hours post-inoculation. Lungs were aseptically removed from survivors 12 hours after the last dose and examined for visible signs of infection, then homogenized in sterile PBS and plated for determination of CFUs by log plating on Columbia agar-nalidixic acid plates.
smiles,measurement,setting,value
"CC1CC(N(C)C)C(O)C(O[C@@H]2[C@@H](C)C(=O)[C@](C)(F)C(=O)O[C@H](CCF)[C@@]3(C)OC(=O)N[C@@H]3[C@@H](C)C(=O)[C@H](C)C[C@@]2(C)OC/C=C/c2ccc3cccnc3c2)O1 (stereo partly drawn) [Compound (III), 6-O-(1-(7-quinolyl)-3-propenyl)-11-amino-11-deoxy-3-(descladinosyl)-3-oxo-2,15-difluoroerythromycin A-11,12-cyclic carbamate]",Highest dermal penetration,[1],5.7 % of applied dose
same,LDH leakage (%),[2]; 0.82 μM,6.1 ± 0.63%
same,Viability (%),[2]; 0.82 μM,94 ± 0.63%
same,LDH leakage (%),[2]; 2.5 μM,3.9 ± 2.8%
same,Viability (%),[2]; 2.5 μM,96 ± 2.8%
same,LDH leakage (%),[2]; 7.4 μM,10 ± 2.9%
same,Viability (%),[2]; 7.4 μM,90 ± 2.9%
same,LDH leakage (%),[2]; 22 μM,12 ± 0.74%
same,Viability (%),[2]; 22 μM,88 ± 0.74%
same,LDH leakage (%),[2]; 67 μM,6.7 ± 1.3%
same,Viability (%),[2]; 67 μM,93 ± 1.3%
same,LDH leakage (%),[2]; 200 μM,7.6 ± 4.2%
same,Viability (%),[2]; 200 μM,92 ± 4.2%
same,"Log CFU/g (avg, n = 8)",[3]; 0.5 mg/kg oral gavage daily over 3 days,3.9 Log CFU/g
same,"Log CFU/g (avg, n = 8)",[3]; 2.5 mg/kg oral gavage daily over 3 days,3.0 Log CFU/g
same,% survivors,"[3]; rat, 0.5 mg/kg oral gavage daily over 3 days",100%
same,% survivors,"[3]; rat, 2.5 mg/kg oral gavage daily over 3 days",100%
same,reducing the bacterial load in the rat lungs and increasing survival relative to control animals,"[3]; rat, oral gavage daily over 3 days",efficacious
